Source: PMC9388697 (Biometals : an international journal on the role of metal …, 2022)

Biological target: Mar2 (Thermoanaerobacterium thermosaccharolyticum, UniProt D9TSN9, K173F/K351T)
Experiment: lactate racemase activity, L-lactate determined with Megazyme kit
Type: biochemical
Conditions: 200 mM D-lactate; in vitro synthesized NPN; 35 °C; 30 min

## C[C@@H](O)C(=O)O [D-lactate]
  % of TtLarA activity: a small but substantial lactate racemase (Lar) activity was detected for the purified enzymes
